Data on 49 molecules can be found in PubChem BioAssay AID463136 (University of Pittsburgh Molecular Library Screening Center, 2010).

Results filed as inconclusive are left out. Calls of active or inactive are those of the source. No rule for the calls is given here.

Usually inhibition stands for the drop in the measured response relative to a control, in per cent. The IC50 is the point on the concentration scale where inhibition reaches its midpoint.

Experiment [1] is described as follows: blockers of dynein-driven microtubule transport – imaging, high-content imaging, dose response (AID 463136).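 Also: mouse mammary adenocarcinoma 3617.4 cells expressing GFP-tagged rat glucocorticoid receptor.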 The settings on record: HCS imaging, dynein-mediated cargo transport inhibition; inhibition at max concentration; at 50 µM; stronger effect = higher value.
Experiment [2] concerns HCS imaging, dynein-mediated cargo transport inhibition. The experiment is described as above.

Consider `O=C(NCc1cccnc1)/C(=C\c1ccc(-c2ccc(Br)cc2)o1)S(=O)(=O)c1ccccc1`, for which the inhibition in experiment [1] was determined as 55.1%. In experiment [2], the half-inhibitory concentration (IC50) is 39.4 µM.

On to `N#C/C(=C/c1ccc(N2CCCCCC2)o1)c1ccc(F)cc1`, for which the inhibition in experiment [1] came to 33.8%. Also, in experiment [2], the IC50 is > 50 µM (inactive).

`CC(C)N1C/C(=C/c2ccsc2)C(=O)/C(=C/c2ccsc2)C1`: the inhibition in experiment [1] came out at 69.2%. Besides, the IC50 in experiment [2] was 40.1 µM.

Consider `COc1ccc(N(C(=O)CCl)C(C(=O)NCCc2ccccc2)c2cccs2)cc1Cl` (stereo not drawn), for which the inhibition in experiment [1] is 93.6%. Besides, the IC50 in experiment [2] was 14.8 µM.

Regarding `CCOC(=O)c1c2ccc(OCC(=O)N/N=C/c3ccc(Cl)cc3)cc2n2ccccc12`, in experiment [1], the inhibition turned out to be 27.4%. In experiment [2], the IC50 was > 50 µM (inactive).

For `CCOc1cc(/C=C\[N+](=O)[O-])ccc1OCC(=O)N1CCOCC1`, in experiment [1], the inhibition amounted to 76.4%. Also, the IC50 in experiment [2] was 37.4 µM.

Turning to `Cc1ccccc1-n1sc2cc(F)ccc2c1=O`, in experiment [1], the inhibition is 96.2%. Besides, the IC50 in experiment [2] is 13.6 µM.

`O=C1NC(=O)N(c2ccccc2)C(=O)/C1=C/c1ccc([N+](=O)[O-])s1`: in experiment [1], the inhibition was 86.7%. Also, the half-maximal inhibitory concentration (IC50) in experiment [2] was 13.4 µM.

As for `CCOC(=O)C(=Cc1c[nH]c2ccc(S(=O)(=O)N(C)C)cc12)C(=O)OCC`, the inhibition in experiment [1] came to 92.8%. In addition, the concentration for half-maximal inhibition (IC50) in experiment [2] was 29.5 µM.

`CC1CCN(C(=O)c2ccc3c(Cl)c4c(nc3c2)CCCC4)CC1`: the inhibition in experiment [1] came to 76.6%. Besides, in experiment [2], the IC50 is 21.4 µM.

Take `O=C(COc1ccc(/C=C\[N+](=O)[O-])cc1)N1CCOCC1`: the inhibition in experiment [1] was determined as 13.7%. Besides, the IC50 in experiment [2] is > 50 µM (inactive).

For `COc1cc(/C=C2\COC/C(=C\c3ccc(O)c(OC)c3)C2=O)ccc1O`, in experiment [1], the inhibition turned out to be 64.3%. In addition, the IC50 in experiment [2] was 39.7 µM.

In the case of `CCCCc1ccc(/C=C2\C(=O)c3ccccc3C(O)=C2C(=O)OCC)cc1`, the inhibition in experiment [1] stood at 15.5%. Further, the IC50 in experiment [2] is > 50 µM (inactive).

`CC(=O)Cn1ncc(Br)c(Br)c1=O`: in experiment [1], the inhibition was 78.5%. Also, the 50% inhibitory concentration (IC50) in experiment [2] was 5.4 µM.

Consider `CCOc1ccc(-n2c(C)cc(C(=O)CCl)c2C)cc1`, for which the inhibition in experiment [1] came to 82.2%. In addition, the IC50 in experiment [2] is 24.9 µM.

With `O=c1cc(N=Nc2ccc(Cl)cc2)[nH]c(=O)[nH]1`, in experiment [1], the inhibition stood at 80.6%. Further, in experiment [2], the 50% inhibitory concentration (IC50) is 13.6 µM.

`CC(C)CC(=O)/C=C/n1c(=S)oc2ccccc21`: the inhibition in experiment [1] was determined as 24.5%. For the same molecule, the IC50 in experiment [2] is > 50 µM (inactive).

In the case of `COc1ccc(-c2csc3nc(-c4ccccc4F)oc(=O)c23)cc1OC`, the inhibition in experiment [1] came out at 20.3%. In addition, the IC50 in experiment [2] was > 50 µM (inactive).

In the case of `O=C(Cc1ccccc1)Nc1cccc(N2C(=O)C=CC2=O)c1`, in experiment [1], the inhibition was determined as 4.22%. In addition, the IC50 in experiment [2] was > 50 µM (inactive).

As for `O=c1[nH]sc2ccccc12`, the inhibition in experiment [1] is 91%. Further, in experiment [2], the IC50 is 10.9 µM.

Take `O=C1/C(=C\c2cccnc2)CN(Cc2ccccc2)C/C1=C\c1cccnc1`: the inhibition in experiment [1] came to 83.3%. In addition, the IC50 in experiment [2] is 15.5 µM.

For the molecule `O=[N+]([O-])c1cc(S(=O)(=O)N2CCCCCC2)ccc1F`, the inhibition in experiment [1] is 87.3%. In experiment [2], the half-inhibitory concentration (IC50) is 33.7 µM.

Take `COc1ccc(-n2nc(C#N)c(Cl)cc2=O)cc1`: in experiment [1], the inhibition is 65.4%. Moreover, the IC50 in experiment [2] is 8.09 µM.

Consider `O=C(/C=C/Sc1ccccc1)c1ccccc1`, for which the inhibition in experiment [1] was determined as 76.9%. Moreover, in experiment [2], the IC50 was 30.3 µM.

As for `COc1cccc(N(C(=O)CCl)C(C(=O)NCCc2ccccc2)c2cccs2)c1` (stereo not drawn), the inhibition in experiment [1] amounted to 85.4%. The half-maximal inhibitory concentration (IC50) in experiment [2] was 27.1 µM.

Take `Cc1nnc(NC(=O)c2sc3nc(-c4cccs4)cc(C(F)(F)F)c3c2N)s1`: the inhibition in experiment [1] is 154%. In addition, the IC50 in experiment [2] was 2.21 µM.

`N/C(=C\C(=O)c1cc(Cl)ccc1O)C(Cl)(Cl)Cl`: the inhibition in experiment [1] came to 76.1%. Also, in experiment [2], the IC50 is 33 µM.

Take `C=CS(=O)c1sc(Cl)c(N2CCOCC2)c1[N+](=O)[O-]` (stereo not drawn): the inhibition in experiment [1] was 57.1%. Besides, the concentration for half-maximal inhibition (IC50) in experiment [2] was 45.6 µM.

Consider `COc1ccc(CN(CCC(c2ccccc2)c2ccc(OC(C)C)cc2)C(=O)CCl)cc1OC` (stereo not drawn), for which, in experiment [1], the inhibition amounted to 34.9%. The IC50 in experiment [2] was > 50 µM (inactive).

Regarding `Nc1c(C(=O)c2ccc(Cl)cc2)sc2nsc(SCCN3CCOCC3)c12`, in experiment [1], the inhibition came to 7.23%. Further, the IC50 in experiment [2] was > 50 µM (inactive).

As for `Cc1ccc(C(=O)OCn2ncc(Cl)c(Cl)c2=O)cc1`, in experiment [1], the inhibition was found to be 76.2%. Further, in experiment [2], the concentration for half-maximal inhibition (IC50) was 18.9 µM.

Take `Cc1c(N=C2C=CC(=O)c3ccccc32)c(=O)n(-c2ccccc2)n1C`: in experiment [1], the inhibition was determined as 76.4%. The IC50 in experiment [2] was 39.6 µM.

For the molecule `CCOC(=O)C(=Cc1ccc(OCc2ccc([N+](=O)[O-])cc2)c(OC)c1)C(=O)OCC`, in experiment [1], the inhibition is 2.92%. In addition, the IC50 in experiment [2] was > 50 µM (inactive).

Regarding `COc1cc(N2C(=O)C=CC2=O)c(OC)cc1Cl`, the inhibition in experiment [1] amounted to 12.9%. The IC50 in experiment [2] was > 50 µM (inactive).

Take `CC(=O)Nc1sc(/C(C#N)=C/c2ccc(Cl)c(Cl)c2)nc1-c1ccc(C)cc1`: in experiment [1], the inhibition was found to be 102%. Also, the half-maximal inhibitory concentration (IC50) in experiment [2] is 0.491 µM.

As for `Cc1nc([N+](=O)[O-])c(Br)n1CC(=O)c1ccc2ccccc2c1`, in experiment [1], the inhibition is 81.3%. Also, in experiment [2], the half-inhibitory concentration (IC50) is 5.15 µM.

Take `COC(=O)c1cc(=O)n(Cc2ccc(OC)c(OC)c2)c(=Nc2ccc(F)cc2)s1`: in experiment [1], the inhibition is 74.3%. Further, the IC50 in experiment [2] was 24.6 µM.

With `COc1ccc(C(CCN(Cc2ccc(OC)c(OC)c2)C(=O)CCl)c2ccccc2)cc1` (stereo not drawn), the inhibition in experiment [1] is 70.4%. Besides, the IC50 in experiment [2] was 37 µM.

For `Cc1cccc(N(Cc2ccccc2)C(=O)CCl)c1`, the inhibition in experiment [1] came to 63.4%. The IC50 in experiment [2] is 11.9 µM.

In the case of `Cc1ccc(C2=NOC(=O)/C2=C\c2ccc(C)o2)cc1`, in experiment [1], the inhibition amounted to 79.8%. Besides, in experiment [2], the IC50 is 39.9 µM.

With `CC(C)n1c(O)c(C2c3cc(Cl)ccc3Oc3[nH]c(=O)n(C(C)C)c(=O)c32)c(=O)[nH]c1=O` (stereo not drawn), the inhibition in experiment [1] amounted to 64.2%. Also, the IC50 in experiment [2] was 13.6 µM.

Consider `Cc1ccc(C(C)C)c(OCC(=O)NN=C(CCl)CCl)c1`, for which the inhibition in experiment [1] came to 36.3%. The IC50 in experiment [2] was > 50 µM (inactive).

With `CCOc1ccccc1N1C(=O)CC(Sc2n[nH]c(-c3ccccc3)n2)C1=O` (stereo not drawn), the inhibition in experiment [1] amounted to 13.5%. Besides, the IC50 in experiment [2] is > 50 µM (inactive).

`CC1(C)C(=O)Nc2ccccc2N1C(=O)Cn1ncc(Cl)c(Cl)c1=O`: in experiment [1], the inhibition came out at 71.9%. The IC50 in experiment [2] is 12.3 µM.

For the molecule `O=C1/C(=C/c2ccc(N3CCOCC3)o2)SC(=Nc2ccccc2)N1CCc1c[nH]c2ccccc12`, the inhibition in experiment [1] was determined as 95.6%. Also, the concentration for half-maximal inhibition (IC50) in experiment [2] is 1.2 µM.

With `Cc1cc(C(=O)CCl)c(C)n1Cc1ccco1`, the inhibition in experiment [1] came out at 85.7%. Besides, in experiment [2], the 50% inhibitory concentration (IC50) is 13.5 µM.

As for `N#CC(C#N)=C1C=CC=CN1/C(=C\c1ccco1)C(=O)c1ccccc1`, in experiment [1], the inhibition was 19.2%. In experiment [2], the IC50 is > 50 µM (inactive).

On to `CN(C)c1ccc(/C=C/C(=O)c2cccc(Br)c2)cc1`, for which the inhibition in experiment [1] came out at 18.7%. For the same molecule, the IC50 in experiment [2] was > 50 µM (inactive).

`BrC(=C\c1ccccc1)/C=N/n1cnnc1`: the inhibition in experiment [1] came out at 90.7%. In addition, in experiment [2], the 50% inhibitory concentration (IC50) is 18.4 µM.
